Measured values published in US8691982B2, “Pyrazolo[1,5-a]-1,3,5-triazine derivatives, preparation thereof, and therapeutic use thereof” (Centre National de la Recherche Scientifique, priority 2009, dated 2014).
Structures can show the parent of a compound that is named as a salt.

Experiments:
CDK5/p25 = CDK5/p25 (Homo sapiens, UniProt Q00535); assay: CDK5/p25 kinase assay; format: biochemical, mammalian; details: 15 μM ATP, 30° C., histone H1 substrate
Protocol: (§1) Buffer C: 60 mM β-glycerophosphate, 15 mM p-nitrophenyl phosphate, 25 mM Mops (pH 7.2), 5 mM EGTA, 15 mM MgCl2, 1 mM DTT, 1 mM sodium vanadate, 1 mM phenyl phosphate, 10 μg leupeptin/ml, 10 μg aprotinin/ml and 100 μM benzamidine.
(§2) Controls were performed with appropriate dilutions of dimethyl sulfoxide.
(§3) ATP (3000 Ci/mmol; 10 mCi/ml) in a final volume of 30 μl. After incubation for 30 minutes at 30° C., aliquotes of 25 μl of the supernatant were spotted onto Whatman P81 phosphocellulose paper filters and, 20 seconds later, the filters were washed five times (for at least five minutes each time) in a solution of 10 ml of phosphoric acid/liter of water. The wet filters were subjected to counting in the presence of an ACS scintillation fluid from Amersham. CDK2/cyclin A (human, recombinant, expressed in insect cells) was assayed as described for CDK1/cyclin B. CDK5/p25 was reconstituted by mixing equal amounts of recombinant mammalian CDK5 and p25 expressed in E. coli as a GST (glutathione-S-transferase) fusion protein and purified by affinity chromatography on glutathione-agarose (p25 is a truncated version of p35, the 35 kDa CDK5 activator). […] DYRK1A (human, recombinant, expressed in E. coli as a GST fusion protein) was purified on glutathione-agarose, assayed as described for CDK1/cyclin B with myelin basic protein (1 mg/ml) as substrate.

GSK-3α/β = GSK-3α/β kinase assay; format: biochemical, pig; details: 15 μM ATP, 30° C., buffer A, GS-1 substrate
CDK2/cyclin A = biological target: T1, CDK2/cyclin A (Homo sapiens, UniProt P24941); assay: CDK2/cyclin A kinase assay; format: biochemical; details: 15 μM ATP, 30° C., histone H1 substrate
T1 construct: host or cells: insect cells
Protocol: as §1, §2, §3

CDK1/cyclin B = CDK1/cyclin B kinase assay; format: biochemical, starfish (Marthasterias glacialis); details: 15 μM ATP, 30° C., histone H1 substrate
Protocol: Homogenization buffers: 60 mM β-glycerophosphate, 15 mM p-nitrophenyl phosphate, 25 mM Mops (pH 7.2), 15 mM EGTA, 15 mM MgCl2, 1 mM DTT, 1 mM sodium vanadate, 1 mM NaF, 1 mM phenyl phosphate, 10 μg leupeptin/ml, 10 μg aprotinin/ml, 10 μg soybean trypsin inhibitor/ml and 100 μM benzamidine.
as §1, §2, §3

DYRK1A = DYRK1A (Homo sapiens, UniProt Q13627); assay: DYRK1A kinase assay; format: biochemical; details: 15 μM ATP, 30° C., myelin basic protein substrate
Protocol: (§4) The blank values were subtracted and the activities calculated as μmoles of phosphate incorporated per 10 minutes of incubation. […] Controls were performed with appropriate dilutions of dimethyl sulfoxide.
as §3

CK1δ/ε = CK1δ/ε kinase assay; format: biochemical, pig; details: 15 μM ATP, 30° C., CK1-specific peptide substrate
Protocol: as §4, §3

CDK9/cyclin T = biological target: T2, CDK9/cyclin T (Homo sapiens, UniProt P50750); assay: CDK9/cyclin T kinase assay; format: biochemical; details: 15 μM ATP, 30° C., pRB fragment substrate
T2 construct: host or cells: insect cells
T2 sequence (P50750 whole entry, the tested form may be a part): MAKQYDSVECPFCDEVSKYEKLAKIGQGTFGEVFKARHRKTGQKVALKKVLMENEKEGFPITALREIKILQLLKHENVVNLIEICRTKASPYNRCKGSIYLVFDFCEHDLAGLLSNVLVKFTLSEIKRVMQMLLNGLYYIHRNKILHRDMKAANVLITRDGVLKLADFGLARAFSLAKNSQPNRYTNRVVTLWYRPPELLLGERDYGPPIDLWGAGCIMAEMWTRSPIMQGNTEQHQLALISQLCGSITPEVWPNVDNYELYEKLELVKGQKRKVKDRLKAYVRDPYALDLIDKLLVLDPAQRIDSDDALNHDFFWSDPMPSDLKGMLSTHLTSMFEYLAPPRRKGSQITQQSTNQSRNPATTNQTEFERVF
T2 sequence (O60563 whole entry partner, the tested form may be a part): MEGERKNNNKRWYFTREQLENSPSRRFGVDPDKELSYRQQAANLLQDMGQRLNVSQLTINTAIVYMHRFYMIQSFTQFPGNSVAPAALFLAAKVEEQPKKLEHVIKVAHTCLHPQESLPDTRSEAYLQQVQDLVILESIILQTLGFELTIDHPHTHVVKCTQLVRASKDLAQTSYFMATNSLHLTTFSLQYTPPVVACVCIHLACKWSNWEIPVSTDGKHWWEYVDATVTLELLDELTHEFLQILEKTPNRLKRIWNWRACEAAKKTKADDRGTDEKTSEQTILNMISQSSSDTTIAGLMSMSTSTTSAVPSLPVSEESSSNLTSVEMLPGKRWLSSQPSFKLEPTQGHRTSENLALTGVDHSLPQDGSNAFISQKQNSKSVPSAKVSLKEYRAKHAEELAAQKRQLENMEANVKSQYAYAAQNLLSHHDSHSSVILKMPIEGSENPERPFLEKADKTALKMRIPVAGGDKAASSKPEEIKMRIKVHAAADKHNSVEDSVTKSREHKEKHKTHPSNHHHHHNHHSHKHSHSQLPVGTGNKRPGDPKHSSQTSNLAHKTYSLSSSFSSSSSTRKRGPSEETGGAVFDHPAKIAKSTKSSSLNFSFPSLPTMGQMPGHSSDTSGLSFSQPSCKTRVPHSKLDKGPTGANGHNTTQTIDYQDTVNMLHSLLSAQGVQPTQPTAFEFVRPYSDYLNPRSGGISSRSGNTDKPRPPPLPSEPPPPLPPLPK

CDK5/p25, sequence (Q00535 whole entry, species assumed): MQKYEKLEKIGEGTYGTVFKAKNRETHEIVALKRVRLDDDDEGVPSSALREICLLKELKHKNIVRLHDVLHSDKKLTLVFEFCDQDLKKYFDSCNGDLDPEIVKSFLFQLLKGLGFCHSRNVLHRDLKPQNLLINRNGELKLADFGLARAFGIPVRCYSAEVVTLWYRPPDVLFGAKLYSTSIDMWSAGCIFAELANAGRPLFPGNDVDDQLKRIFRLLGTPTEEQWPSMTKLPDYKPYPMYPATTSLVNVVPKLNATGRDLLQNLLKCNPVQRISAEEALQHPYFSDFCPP
CDK5/p25, sequence (Q15078 99-307 partner limits assumed, species assumed): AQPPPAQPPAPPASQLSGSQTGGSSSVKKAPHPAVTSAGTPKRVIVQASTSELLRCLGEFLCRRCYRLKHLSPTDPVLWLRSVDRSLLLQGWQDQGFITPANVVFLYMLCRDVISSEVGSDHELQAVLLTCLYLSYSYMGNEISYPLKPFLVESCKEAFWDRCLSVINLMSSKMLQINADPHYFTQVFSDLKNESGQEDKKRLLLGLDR

| Compound | IC50 (CDK5/p25) [nM] | IC50 (GSK-3α/β) [nM] | IC50 (CDK2/cyclin A) [nM] | IC50 (CDK1/cyclin B) [nM] | IC50 (DYRK1A) [nM] | IC50 (CK1δ/ε) [nM] | IC50 (CDK9/cyclin T) [nM] |
| --- | --- | --- | --- | --- | --- | --- | --- |
| CC(C)c1cnn2c(NCc3ccc(-c4ccccn4)cc3)nc(NC[C@H](O)CO)nc12 [Compound 9, Fumarate salt of (S)-2-(1,2-dihydroxypropan-3-ylamino)-8-isopropyl-4-[4-(pyridin-2-yl)benzylamino]pyrazolo[1,5-a]-1,3,5-triazine] | 14 | 1800 | 12 | 19 | 260 | 61 | 38 |
| CC(C)c1cnn2c(NCc3ccc(-c4ccccn4)cc3)nc(N[C@H](CO)[C@@H](C)O)nc12 [Compound 13, Fumarate salt of (2R,3R)-2-(1,3-dihydroxybut-2-ylamino)-8-isopropyl-4-[4-(pyridin-2-yl)benzylamino]pyrazolo[1,5-a]-1,3,5-triazine] | 21 | 2300 | 20 | 31 | 300 | 180 | 49 |
| CC(C)c1cnn2c(NCc3ccc(-c4ccccn4)cc3)nc(NC(CO)CO)nc12 [Compound 17, 2-(1,3-dihydroxyprop-2-ylamino)-8-isopropyl-4-[4-(pyridin-2-yl)benzylamino]pyrazolo[1,5-a]-1,3,5-triazine] | 53 | 4400 | 62 | 70 | 920 | 92 | 68 |
| CC(C)c1cnn2c(NCc3ccc(-c4ccccn4)cc3)nc(N[C@@H](CO)[C@H](C)O)nc12 (stereo in doubt) [Compound 14, (2S,3S)-2-(1,3-dihydroxybut-2-ylamino)-8-isopropyl-4-[4-(pyridin-2-yl)benzylamino]pyrazolo[1,5-a]-1,3,5-triazine] | 44 | 2500 | 42 | 42 | 580 | 120 | 53 |
| CC(C)c1cnn2c(NCc3ccc(-c4ccccc4)nc3)nc(N[C@H](CO)[C@@H](C)O)nc12 [Compound 23] | < 30 | 1200 | – | – | 1300 | 130 | – |

Continued by falling IC50 (CDK5/p25), values first:

| IC50 (CDK5/p25) [nM] | IC50 (GSK-3α/β) [nM] | IC50 (CDK2/cyclin A) [nM] | IC50 (CDK1/cyclin B) [nM] | IC50 (DYRK1A) [nM] | IC50 (CK1δ/ε) [nM] | IC50 (CDK9/cyclin T) [nM] | Compound |
| --- | --- | --- | --- | --- | --- | --- | --- |
| 120 | 7000 | – | – | 580 | 410 | – | CC(C)c1cnn2c(NCc3ccc(-c4ccccn4)cc3)nc(N[C@H](CO)C(C)C)nc12 [Compound 28, (S)-2-(1-hydroxy-3-methylbut-2-ylamino)-8-isopropyl-4-[4-(pyridin-2-yl)benzylamino]pyrazolo[1,5-a]-1,3,5-triazine] |
| 45 | 2200 | 31 | 42 | 530 | 120 | 60 | CC(C)c1cnn2c(NCc3ccc(-c4ccccn4)cc3)nc(N[C@@H](CO)[C@H](C)O)nc12 [Compound 15, Fumarate salt of (2S,3S)-2-(1,3-dihydroxybut-2-ylamino)-8-isopropyl-4-[4-(pyridin-2-yl)benzylamino]pyrazolo[1,5-a]-1,3,5-triazine] |
| 43 | 1200 | – | – | 1200 | 110 | – | CC(C)c1cnn2c(NCc3ccc(-c4ccccc4)nc3)nc(N[C@@H](CO)[C@H](C)O)nc12 [Compound 21] |
| 29 | 3000 | 22 | 29 | 470 | 200 | 60 | CC(C)c1cnn2c(NCc3ccc(-c4ccccn4)cc3)nc(N[C@H](CO)[C@@H](C)O)nc12 (stereo in doubt) [Compound 12, (2R,3R)-2-(1,3-dihydroxybut-2-ylamino)-8-isopropyl-4-[4-(pyridin-2-yl)benzylamino]pyrazolo[1,5-a]-1,3,5-triazine] |
